Laboratory results reported in patent US12428388B2, “Nonionic polyether surfactants” (Cepheid, priority 2020, dated 2025).

Tests used:
[1] = Stability in 2M NaOH (visual observation); type: physicochemical; details: 1% surfactant in 2M NaOH, room temperature
Description: In the following experiments, the properties of exemplary reduced polysorbates were compared with the starting materials purchased from Sigma: Tween 20® BioXtra, Cat No P7949 and Tween 80® BioXtra, Cat No P8074
The following solutions are prepared in two vials: (A) 1% Tween 20® in 2M NaOH; (B) 1% Compound 2 in 2M NaOH. Both solutions were left at room temperature and the changes were observed visually.
Similarly, hydrolytic stability of (A) Tween 80® and (B) Compound 2 were compared.

[2] = target: T1, Lipase from porcine pancreas (Sus scrofa, UniProt P00591); experiment: Resistance to Lipase Hydrolysis; type: in vitro ADME; details: 1% surfactant in 10 mM tris-HCl (pH 8.0), CaCl2, Lipase from porcine pancreas (Sigma L3126), room temperature
T1 construct: Lipase from porcine pancreas (Sigma L3126); purchased Sigma L3126; host or cells: porcine pancreas (tissue-derived)
T1 sequence (P00591 1-450): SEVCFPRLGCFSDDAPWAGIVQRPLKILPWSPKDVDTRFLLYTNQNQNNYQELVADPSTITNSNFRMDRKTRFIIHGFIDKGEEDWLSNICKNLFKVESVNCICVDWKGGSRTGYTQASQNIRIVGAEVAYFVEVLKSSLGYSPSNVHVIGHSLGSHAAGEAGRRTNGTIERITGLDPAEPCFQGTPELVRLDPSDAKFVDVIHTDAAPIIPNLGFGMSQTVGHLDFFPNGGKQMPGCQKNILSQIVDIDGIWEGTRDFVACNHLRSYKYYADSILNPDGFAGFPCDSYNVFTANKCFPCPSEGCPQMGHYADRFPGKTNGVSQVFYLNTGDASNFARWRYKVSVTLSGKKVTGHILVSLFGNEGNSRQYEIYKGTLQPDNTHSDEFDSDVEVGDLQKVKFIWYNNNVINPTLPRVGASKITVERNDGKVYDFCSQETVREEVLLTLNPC
Description: (§1) Stability of surfactants in the presence of hydrolyzing enzymes was tested according to a simplified literature procedure (Francisco J. Plou, Manuel Ferrer, Oscar M. Nuero, Maria V. Calvo, Miguel Alcalde, Fuensanta Reyes, Antonio Ballesteros. Analysis of Tween 80 as an esterase/lipase substrate for lipolytic activity assay. Biotechnology Techniques, Vol 12, No 3, March 1998, pp. 183-186.)
B1. Resistance to Lipase Hydrolysis
The following solutions are prepared in two vials: (A) to 20 mL of 1% Tween 20® in 10 mM tris-HCl (pH 8.0) is added 1 mL of 5% CaCl2) followed by 2 mL of 2 mg/mL solution of Lipase from porcine pancreas (Sigma L3126) in 10 μM tris-HCl (pH 8.0); (B) to 20 mL of 1% Compound 1 in 10 mM tris-HCl (pH 8.0) is added 1 mL of 5% CaCl2) followed by 2 mL of 2 mg/mL solution of Lipase from porcine pancreas (Sigma L3126) in 10 μM tris-HCl (pH 8.0). Both solutions were left at room temperature, and changes were observed visually.

[3] = system: Esterase from porcine liver; experiment: Resistance to Esterase Hydrolysis; type: in vitro ADME; details: 1% surfactant in 10 mM tris-HCl (pH 8.0), CaCl2, Esterase from porcine liver (Sigma E2884), room temperature
Description: as §1
B2. Resistance to Esterase Hydrolysis
The following solutions were prepared in two vials: (A) to 20 mL of 1% Tween 20® in 10 mM tris-HCl (pH 8.0) is added 1 mL of 5% CaCl2) followed by 40 μL of 100 UN/mL solution of Esterase from porcine liver (Sigma E2884) in 10 μM tris-HCl (pH 8.0); (B) to 20 mL of 1% Compound 1 in 10 mM tris-HCl (pH 8.0) is added 1 mL of 5% CaCl2 followed by 40 μL of 100 UN/mL solution of Esterase from porcine liver in 10 μM tris-HCl (pH 8.0). Both solutions were left at room temperature and changes were observed visually.

Substance | hydrolytic stability in 2M NaOH, changes of the solution observed visually [1] | stability to lipase hydrolysis, changes of the solution observed visually [2] | stability to esterase hydrolysis, changes of the solution observed visually [3]
polyoxyethylene sorbitan monolaurate [Tween 20®] | became non-transparent within one hour and turned into stiff gel the next day | became cloudy within one hour and became non-transparent the next day | became cloudy within one hour and became non-transparent the next day
polyoxyethylene sorbitan monooleate [Tween 80®] | became cloudy within one hour and turned into a stiff gel the next day | – | –
